Converted amounts (≈) assume the structure as drawn. Like-named read-outs stand apart in the source and are kept apart here.
Key:
[1] = Solubility experiments in different media (thermodynamic solubility); format: physicochemical; conditions: thermodynamic from solid
Description: The solubility of the free base crystal form I and the free base crystal form II in media such as pH 1.0-8.0 USP buffer, artificial simulated gastric fluid (FaSSGF), fasted-state artificial simulated intestinal fluid (FaSSIF), fed-state artificial simulated intestinal fluid (FeSSIF) and pure water was compared to provide a basis for the evaluation of drugability.

[2] = PK studies in animals of the free base crystal forms; format: in vivo; conditions: Sprague-Dawley (SD), rat, 30 mg/kg, 30MPK, 0.5%HPMC suspension, SD rats, plasma
Protocol: The pharmacokinetic of the free base crystal form after a single intravenous administration was studied, and the bioavailability of the free base crystal form I and the free base crystal form II after oral administration were calculated.
The free base crystal form I was suspended with 0.5% CMCC-Na aqueous solution, and the free base crystal form […] aqueous solution. After uniformity, the suspensions were administered intragastrically to rats in triplicate at a dosage of 5 mg/kg (30 mg/kg for suspension) for the free base crystal form I and a dosage of 30 mg/kg (suspension) for the free base crystal form II. The free base crystal form I was dissolved with 20% HP-β-CD aqueous solution to obtain a clear solution, and the clear solution was filtered through a filter membrane. The filtered solution was administered via injection to rats in triplicate.

[3] = Hygroscopicity experiment; format: physicochemical; conditions: at 80%RH
Protocol: The hygroscopicity of the crystal form I and the crystal form II of compound 9 were investigated under different relative humidity to provide a basis for the storage of the compounds.
The crystal form I and the crystal form II of compound 9 were placed in saturated water vapor at different relative humidities to allow the compound to reach a dynamic equilibrium with the water vapor, and the percentage of weight gain after moisture absorption of the compound after equilibrium was calculated.

[4] = Solid stability experiment (related substances by HPLC); format: physicochemical
Protocol: The compound physical and chemical stability at high temperature of 60°C, high humidity of 92.5% RH and both high temperature of 50°C and high humidity of 75% RH of the free base crystal form I and the free base crystal form II were investigated to provide a basis for the storage of the compounds.
About 2 mg of the free base crystal form I and the free base crystal form II were taken respectively, and changes of related substances in the crystal forms at high temperature of 60°C, high humidity of 92.5% RH, and both high temperature of 50°C and high humidity of 75%RH for 7 days and 14 days were investigated. The changes of related substances were calculated by HPLC and the chromatographic peak area normalization method.

[5] = Room temperature, 92.5%RH, 7 days
[6] = Room temperature, 92.5%RH, 14 days

SMILES: CC(C)(O)c1nc(N2C[C@H]3CN(C(=O)c4c(F)cccc4-c4ncccn4)C[C@H]3C2)ncc1F [free base crystal form II, ((3aR,6aS)-5-(5-fluoro-4-(2-hydroxyprop-2-yl)pyrimidin-2-yl)hexahydropyrrolo [3,4-c]pyrrol-2(1H)-yl)(2-fluoro-6-(pyrimidin-2-yl)phenyl)methanone]
- solubility at 2 h ([1]; FaSSCoF, 37 °C, fassgf or other biorelevant, FaSSCoF, read-out: Solubility of free base crystal form II): 51 µg/mL (≈ 109 µM)
- solubility at 2 h ([1]; FaSSGF (artificial simulated gastric fluid), 37 °C, fassgf or other biorelevant, FaSSGF, read-out: Solubility of free base crystal form II): 131 µg/mL (≈ 281 µM)
- solubility at 2 h ([1]; FaSSIF, 37 °C, fassif, FaSSIF, read-out: Solubility of free base crystal form II): 60 µg/mL (≈ 129 µM)
- solubility at 2 h ([1]; FeSSCoF, 37 °C, fassgf or other biorelevant, FeSSCoF, read-out: Solubility of free base crystal form II): 63 µg/mL (≈ 135 µM)
- solubility at 2 h ([1]; FeSSIF, 37 °C, fessif, FeSSIF, read-out: Solubility of free base crystal form II): 100 µg/mL (≈ 214 µM)
- solubility at 2 h ([1]; USP buffer pH 1.0, 37 °C, pH 1, simulated gastric fluid, pH 1.0, read-out: Solubility of free base crystal form II): 599 µg/mL (≈ 1280 µM)
- solubility at 2 h ([1]; USP buffer pH 2.0, 37 °C, pH 2, simulated gastric fluid, pH 2.0, read-out: Solubility of free base crystal form II): 89 µg/mL (≈ 191 µM)
- solubility at 2 h ([1]; USP buffer pH 3.0, 37 °C, pH 3, aqueous buffer, pH 3.0, read-out: Solubility of free base crystal form II): 55 µg/mL (≈ 118 µM)
- solubility at 2 h ([1]; USP buffer pH 4.5, 37 °C, pH 4.5, aqueous buffer, pH 4.5, read-out: Solubility of free base crystal form II): 53 µg/mL (≈ 114 µM)
- solubility at 2 h ([1]; USP buffer pH 6.8, 37 °C, pH 6.8, aqueous buffer, pH 6.8, read-out: Solubility of free base crystal form II): 49 µg/mL (≈ 105 µM)
- solubility at 2 h ([1]; USP buffer, 37 °C, pH 4, aqueous buffer, pH 4.0, read-out: Solubility of free base crystal form II): 51 µg/mL (≈ 109 µM)
- solubility at 2 h ([1]; USP buffer, 37 °C, pH 5, aqueous buffer, pH 5.0, read-out: Solubility of free base crystal form II): 50 µg/mL (≈ 107 µM)
- solubility at 2 h ([1]; USP buffer, 37 °C, pH 6, aqueous buffer, pH 6.0, read-out: Solubility of free base crystal form II): 50 µg/mL (≈ 107 µM)
- solubility at 2 h ([1]; USP buffer, 37 °C, pH 7, aqueous buffer, pH 7.0, read-out: Solubility of free base crystal form II): 47 µg/mL (≈ 101 µM)
- solubility at 2 h ([1]; USP buffer, 37 °C, pH 8, aqueous buffer, pH 8.0, read-out: Solubility of free base crystal form II): 47 µg/mL (≈ 101 µM)
- solubility at 2 h ([1]; water, 37 °C, water, H2O, read-out: Solubility of free base crystal form II): 55 µg/mL (≈ 118 µM)
- Tmax ([2]; PO, read-out: tmax): 2 h
- AUC(0-inf) ([2]; po): 13600 ng·h/mL
- AUC(0-t) ([2]; po): 11800 ng·h/mL
- Cmax ([2]; po): 2520 ng/mL
- bioavailability ([2]; po): 39.6%
- half-life ([2]; po): 2.4 h
- MRT inf ([2]; po, PO, read-out: MRT 0-∞): 4.3 h
- weight gain after moisture absorption [3]: about 0.2053%
- % Increase in total impurity ([4]; 50°C, 75%RH, 7 days): <0.10%
- % Maximum increase in single impurity ([4]; 50°C, 75%RH, 7 days): <0.10%
- % Increase in total impurity ([4]; 50°C, 75%RH, 14 days): <0.10%
- % Maximum increase in single impurity ([4]; 50°C, 75%RH, 14 days): <0.10%
- % Increase in total impurity ([4]; 60°C, 7 days): <0.10%
- % Maximum increase in single impurity ([4]; 60°C, 7 days): <0.10%
- % Increase in total impurity ([4]; 60°C, 14 days): <0.10%
- % Maximum increase in single impurity ([4]; 60°C, 14 days): <0.10%
- % Increase in total impurity [4, 5]: <0.10%
- % Maximum increase in single impurity [4, 5]: <0.10%
- % Increase in total impurity [4, 6]: <0.11%
- % Maximum increase in single impurity [4, 6]: <0.10%
